Patent publication US11440896B2, “Aminoalkyl compound” (Daiichi Sankyo Company, Limited, priority 2018, dated 2022)

Tests used:
[1] = Hairless mouse skin permeation test; type: in vitro ADME; parameters: unit not given here; details: hairless mouse (HR-1) skin, horizontal diffusion cell, 37° C., donor 3.84 mmol/L in IPM, N=3
Description: (§1) The compounds described in the Examples were dissolved or suspended in isopropyl myristate (IPM) at a concentration of 3.84 mmol/L and the resultant was used.
The frozen skin of a hairless mouse (HR-1 strain, male, 7 weeks old, Japan SLC, Inc.) was thawed at room temperature and, if there was excess subcutaneous fat, the fat was excised with scissors. The horizontal diffusion cell was kept at a constant temperature by flowing water from a thermostatic circulation tank (37° C.) into the external jacket of the cell. The hairless mouse skin was punched out to ϕ24 mm and mounted tightly in the horizontal diffusion cell, 0.9 mL of a receiver solution (McIlvaine buffer containing 40% polyethylene glycol 400) was added to the dermal side (receiver side), and 0.9 mL of a donor solution (the solution or suspension of the compound described in the Example in IPM at a concentration of 3.84 mmol/L) was added to the stratum corneum side (donor side). […]
The compounds in liquids collected in the skin permeation test were quantified. […]
Skin permeation rate (flux, mmol/cm2/hr) and Lag time (hr) were calculated from the slope and X-axis intercept, respectively, of the regression line at steady state from the profile, and used as indicators of skin permeation.

mice (C57BL/6JJmsSlc) = assay: Analgesic score by Tail Flick test in mice; type: in vivo; details: Mus musculus, sc, subcutaneous administration in Captisol, dose with an analgesic score of 50%
Description: A Tail Flick analgesic effect metering device (Ugo Basile) and adult mice (C57BL/6JJmsSlc, Japan SLC, Inc.) were used for evaluation. In the Tail Flick test, thermal stimulation was applied to the tail of each animal, and the latency (in seconds) of escape reflection moving the tail was measured. The maximum heat application time was set to 10 seconds in order to prevent burns.
The compounds described in the Examples were dissolved or suspended in Captisol to prepare test samples. Then, test samples at appropriately selected concentrations were administered subcutaneously to the animals (10 mL/kg), and the latency of escape reflection was measured. The latency of escape reflection before test sample administration was set as [pre-dose measurement], and the analgesic score (%) was calculated as [([measurement]−[pre-dose measurement])/(10−[pre-dose measurement])]×100.
The ED50 was determined by calculating a dose with an analgesic score of 50%.

[2] = Dissolution state in isopropyl myristate (IPM); type: physicochemical; details: concentration of 3.84 mmol/L
Description: as §1

SMILES | Flux (skin permeation rate) [1] | ED50 (mice (C57BL/6JJmsSlc)) | Dissolution state in IPM [2]
CN(C)C[C@@H]1COCC[C@H]1c1cccc(O)c1 (racemic) [Example 1, 3-[(3R*,4R*)-3-(Dimethylaminomethyl)tetrahydropyran-4-yl]phenol] | 35.77 | 1.6 mg/kg | –
CN(C)C[C@@H]1COCC[C@H]1c1cccc(O)c1 (relative stereo) [Example 1, 3-[(3R*,4R*)-3-(Dimethylaminomethyl)tetrahydropyran-4-yl]phenol] | – | – | Dissolved
CN(C)C[C@@H]1CCCC[C@H]1c1cccc(O)c1 [Faxeladol] | 17.14 | 2.7 mg/kg | Suspended
